Test results: patent publication US11638401B2, “Methods and compositions for increasing tolerance to abiotic stress in plants” (priority 2018, dated 2023)

How the values were obtained:
[1] = system: Soybean; assay: Soybean Trial 2018, field trial; assay type: in vivo; conditions: Soybean 2018, Elm City N.C.; Photon 8 g ai/A, Aminoguanidine 2 g ai/A; control 22.3; LSD 0.05 3.8
Source text: (§1) In the table below, the treatment labeled “Photon” represents a mixture of azelaic, sebacic, undecanedioic, acids. It is predominantly azelaic acid, and equal parts of the remaining two major constituents. Abbreviations: ai=active ingredient, A=acre, ha=hectare, lbs=pounds, MT=metric ton • Soybean Trial 2018 • Elm City N.C. • Randomized complete block with 5 replicates

[2] = system: Soybean; assay: Soybean - Two Year Summary, field trials; assay type: in vivo; conditions: Photon 8 g ai/A, Aminoguanidine 2 g ai/A, control 38.9, LSD 0.01 3.9
Source text: as §1

N=C(N)NN [Aminoguanidine, aminoguanidine]
Yield (bu/A) [1]: 24.3 bu/A | Yield (bu/A) [2]: 42.5 bu/A
